Here are results for eleven compounds from PubChem BioAssay (NCI).

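Briefly, cells in 96-well plates were exposed to five compound concentrations for 48 h, and endpoints were estimated by linear interpolation. GI50 = concentration required for 50% inhibition of growth. The concentration for full growth arrest is given as TGI.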

Among the test systems are A498 renal; EKVX NSCLC; HL-60(TB) leukemia; HOP-62 NSCLC; HT29 colon; MALME-3M melanoma; NCI-H522 lung; OVCAR-3 ovarian; SK-MEL-28 melanoma; SN12C renal; SNB-75 CNS; TK-10 renal.
Common to all, as to assay: growth of human tumour cells (NCI), 48 h

As for `COc1ccc(C2c3cc4c(cc3OC(N3CCOCC3)C2C)OCO4)cc1OC` (stereo not drawn), the TGI in the assay with A498 renal was 43 µM; in the assay on EKVX NSCLC, > 100 µM; in the assay with HL-60(TB) leukemia, > 29.1 µM; in the assay with HOP-62 NSCLC it was 72.6 µM; in the assay on HT29 colon, 46.8 µM; in the assay with MALME-3M melanoma, > 100 µM. Further, the TGI with NCI-H522 lung is 22.8 µM; with OVCAR-3 ovarian it was 13.2 µM; in the assay with SK-MEL-28 melanoma it was > 100 µM; with SN12C renal, > 100 µM; with SNB-75 CNS it was 21.4 µM; in the assay on TK-10 renal, > 88.8 µM.
As for `CN(C)CCNc1c(O)c2c(c(O)c1Cl)C(=O)C=CC2=O`, the TGI worked out at 9.74 µM in the assay with A498 renal; 7.69 µM in the assay with EKVX NSCLC; 4.33 µM in the assay on HL-60(TB) leukemia; 3.65 µM with HOP-62 NSCLC; 3.29 µM in the assay with HT29 colon; 3.64 µM in the assay on MALME-3M melanoma. Further, the TGI with NCI-H522 lung is 3.52 µM; with OVCAR-3 ovarian it was 3.61 µM; in the assay on SK-MEL-28 melanoma, 4.36 µM; in the assay with SN12C renal it was 3.41 µM; in the assay on SNB-75 CNS, 6.55 µM; in the assay on TK-10 renal it was 5.68 µM.
Consider `Cc1c2ccccc2c(/C=N/NC(=O)CSCC(=O)N/N=C/c2c3ccccc3c(C)c3ccccc23)c2ccccc12`, for which the TGI with A498 renal is > 93.3 µM; with EKVX NSCLC, > 100 µM; in the assay on HL-60(TB) leukemia it was > 100 µM; in the assay on HOP-62 NSCLC, 36.1 µM; in the assay with HT29 colon it was > 100 µM; in the assay on MALME-3M melanoma it was 97.3 µM. In addition, the TGI is > 100 µM with NCI-H522 lung; > 80.9 µM with OVCAR-3 ovarian; > 100 µM in the assay with SK-MEL-28 melanoma; > 100 µM in the assay on SN12C renal; > 73.3 µM in the assay with SNB-75 CNS; > 95.4 µM in the assay on TK-10 renal. Also, in the assay on NCI-H522 lung, the GI50 is > 100 µM.
For the compound `CCCCCCc1cc2cc(C(=O)Nc3nc(C45CC6CC(CC(C6)C4)C5)cs3)c(=O)oc2cc1O`, the TGI was 31.3 µM in the assay with A498 renal; 51.4 µM with EKVX NSCLC; 19.8 µM in the assay on HL-60(TB) leukemia; 37.6 µM in the assay on HOP-62 NSCLC; > 100 µM in the assay with HT29 colon; 51.1 µM in the assay with MALME-3M melanoma. The TGI in the assay with NCI-H522 lung is 8.33 µM; with OVCAR-3 ovarian it was 39.4 µM; in the assay with SK-MEL-28 melanoma, > 100 µM; with SN12C renal it was 28.7 µM; in the assay on SNB-75 CNS it was 32.4 µM; in the assay on TK-10 renal, 34.2 µM.
With `COc1nc2ncc([C@@H](OC(C)=O)[C@@H](COC(C)=O)OC(C)=O)nc2c(=O)n1C`, the TGI in the assay on A498 renal was > 100 µM; with EKVX NSCLC, > 100 µM; with HL-60(TB) leukemia, 87.8 µM; in the assay on HOP-62 NSCLC, > 100 µM; with HT29 colon, > 100 µM; with MALME-3M melanoma, > 100 µM. The TGI in the assay with NCI-H522 lung, in the assay with OVCAR-3 ovarian, in the assay on SK-MEL-28 melanoma, with SN12C renal, in the assay on SNB-75 CNS and in the assay with TK-10 renal was > 100 µM each time.
As for `CCCCOc1ccc(/C=C/C2=[N+](CCO)CCO2)cc1`, the TGI in the assay on A498 renal is > 100 µM; with EKVX NSCLC, > 100 µM; with HL-60(TB) leukemia, 40.2 µM; with HOP-62 NSCLC, > 100 µM; in the assay with HT29 colon, 31.4 µM; in the assay on MALME-3M melanoma it was > 100 µM. In addition, the TGI in the assay on NCI-H522 lung, with OVCAR-3 ovarian, in the assay on SK-MEL-28 melanoma, with SN12C renal, with SNB-75 CNS and in the assay on TK-10 renal was > 100 µM throughout.
Regarding `CCOP(=O)(OCC)/C(C#N)=C/c1nc[nH]c1C`, the TGI in the assay on A498 renal, with EKVX NSCLC, in the assay with HL-60(TB) leukemia, with HOP-62 NSCLC, in the assay on HT29 colon and with MALME-3M melanoma was > 100 µM each time. Further, the TGI in the assay with NCI-H522 lung, in the assay with OVCAR-3 ovarian, in the assay on SK-MEL-28 melanoma, with SN12C renal, in the assay on SNB-75 CNS and with TK-10 renal was > 100 µM throughout.
`O=C(CSc1nc2ccccc2c(=O)n1-c1ccccc1)N=Nc1c(O)[nH]c2ccc(Br)cc12`: the TGI in the assay with A498 renal was found to be 40.8 µM; in the assay on EKVX NSCLC it was 9.83 µM; with HL-60(TB) leukemia, 12.8 µM; in the assay on HOP-62 NSCLC it was 7.07 µM; with HT29 colon, 3.7 µM; with MALME-3M melanoma, 5.74 µM. The TGI with NCI-H522 lung is 9.69 µM; with OVCAR-3 ovarian it was 20 µM; with SK-MEL-28 melanoma, 13.8 µM; in the assay on SN12C renal, 4.22 µM; in the assay on SNB-75 CNS, 11.5 µM; in the assay with TK-10 renal, 12.4 µM.
On to `CC(=O)N1N=C(c2ccccc2)NC(=O)C1c1cc(C)c(O)c(C)c1` (stereo not drawn), for which the TGI was 67.2 µM in the assay on A498 renal; 93.6 µM in the assay with EKVX NSCLC; > 100 µM in the assay on HL-60(TB) leukemia; 35.3 µM with HOP-62 NSCLC; > 100 µM in the assay with HT29 colon; 38.1 µM in the assay with MALME-3M melanoma. The TGI in the assay on NCI-H522 lung is 37 µM; in the assay with OVCAR-3 ovarian, 36.7 µM; in the assay on SK-MEL-28 melanoma, > 100 µM; with SN12C renal it was 79.1 µM; in the assay on SNB-75 CNS it was 37.5 µM; in the assay with TK-10 renal, 38.2 µM.
With `C[C@]12CCC(=O)C=C1CC[C@@H]1[C@@H]2CC[C@]2(C)C(=O)/C(=C/c3ccc([N+](=O)[O-])cc3)C[C@@H]12`, the TGI is 48.9 µM in the assay with A498 renal; > 100 µM in the assay on EKVX NSCLC; > 100 µM with HL-60(TB) leukemia; > 100 µM in the assay with HOP-62 NSCLC; > 100 µM with HT29 colon; > 100 µM with MALME-3M melanoma. For the same compound, the TGI in the assay on NCI-H522 lung, in the assay on OVCAR-3 ovarian, in the assay on SK-MEL-28 melanoma, with SN12C renal, in the assay on SNB-75 CNS and with TK-10 renal was > 100 µM each time.
As for `Cc1cc2c(cc1Cl)SSc1cc(Cl)c(C)cc1S(=O)(=O)Nc1nc(N)nn1C(O)n1nc(N)nc1NS2(=O)=O`, the TGI in the assay with A498 renal, in the assay with EKVX NSCLC, in the assay on HL-60(TB) leukemia, in the assay on HOP-62 NSCLC, with HT29 colon and in the assay with MALME-3M melanoma was > 10 µM throughout. In addition, the TGI in the assay with NCI-H522 lung, with OVCAR-3 ovarian, with SK-MEL-28 melanoma, in the assay on SN12C renal, with SNB-75 CNS and in the assay on TK-10 renal was > 10 µM throughout.
